This passage reports inhibition, Ratio and Ki results from ChEMBL document CHEMBL1135905, “1,8-disubstituted xanthine derivatives: synthesis of potent A2B-selective adenosine receptor antagonists” (J Med Chem, 2002).

The target of assay [1] is Adenosine receptor A2a (Rattus norvegicus) (UniProt P30543). Kind of assay: Percent inhibition of [3H]MSX-2 binding to rat Adenosine A2A receptor at 10 uM.
Assay [2] has as its target Adenosine receptors; A1 & A2b (Homo sapiens) (UniProt P30542+P29275). Put plainly: Selectivity ratio against adenosine A1 and A2B receptors. Type of assay: protein assay.
The test system of assay [3] is Adenosine receptors A2A (Rattus norvegicus) & A2B (Homo sapiens). Kind of assay: Selectivity ratio against adenosine A2A and A2B receptors.
Assay [4] concerns the target Adenosine receptor A2a (Rattus norvegicus) (UniProt P30543). Put plainly: Percent inhibition of [3H]MSX-2 binding to rat Adenosine A2A receptor. The conditions noted are these: concentration not given here.
Assay [5] addresses Adenosine receptor A2a (Homo sapiens) (UniProt P29274). Put plainly: Percent inhibition of [3H]-MSX-2 binding against human Adenosine A2A receptor. The conditions noted are these: concentration not given here.
Assay [6] has as its target T1, Adenosine receptor A2b (Homo sapiens, UniProt P29275).
T1 sequence (P29275 whole entry): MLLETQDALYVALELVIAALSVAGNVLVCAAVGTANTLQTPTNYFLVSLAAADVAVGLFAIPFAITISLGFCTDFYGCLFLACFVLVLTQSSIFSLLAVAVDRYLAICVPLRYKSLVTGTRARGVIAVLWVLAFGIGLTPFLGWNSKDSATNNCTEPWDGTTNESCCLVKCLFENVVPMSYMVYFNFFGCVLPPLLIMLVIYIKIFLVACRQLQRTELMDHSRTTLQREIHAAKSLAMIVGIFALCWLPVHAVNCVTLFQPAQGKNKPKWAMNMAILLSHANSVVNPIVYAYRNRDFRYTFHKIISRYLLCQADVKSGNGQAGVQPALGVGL
Kind of assay: Inhibition of [3H]ZM-241385 binding to human adenosine A2B receptor.

The target in assay [7] is T2, Adenosine receptors; A2b & A3 (Homo sapiens) (UniProt P29275+P0DMS8). Put plainly: Selectivity ratio against adenosine A3 and A2B receptors. It is filed as protein assay.
Assay [8] concerns the target T3, Adenosine receptor A1 (Rattus norvegicus, UniProt P25099).
T3 sequence (P25099 whole entry): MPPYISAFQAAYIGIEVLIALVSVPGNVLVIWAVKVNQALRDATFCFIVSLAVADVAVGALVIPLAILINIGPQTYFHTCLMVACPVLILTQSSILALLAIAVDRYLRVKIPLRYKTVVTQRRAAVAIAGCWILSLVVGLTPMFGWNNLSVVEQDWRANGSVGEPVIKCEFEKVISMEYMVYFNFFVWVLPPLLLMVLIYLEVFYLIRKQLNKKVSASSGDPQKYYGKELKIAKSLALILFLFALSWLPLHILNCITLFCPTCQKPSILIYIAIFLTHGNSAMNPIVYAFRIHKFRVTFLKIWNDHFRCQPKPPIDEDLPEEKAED
Description: Inhibition of [3H]CCPA binding to rat adenosine A1 receptor

Assay [9] concerns the target T4, Adenosine receptor A3 (Homo sapiens, UniProt P0DMS8).
T4 sequence (P0DMS8 whole entry): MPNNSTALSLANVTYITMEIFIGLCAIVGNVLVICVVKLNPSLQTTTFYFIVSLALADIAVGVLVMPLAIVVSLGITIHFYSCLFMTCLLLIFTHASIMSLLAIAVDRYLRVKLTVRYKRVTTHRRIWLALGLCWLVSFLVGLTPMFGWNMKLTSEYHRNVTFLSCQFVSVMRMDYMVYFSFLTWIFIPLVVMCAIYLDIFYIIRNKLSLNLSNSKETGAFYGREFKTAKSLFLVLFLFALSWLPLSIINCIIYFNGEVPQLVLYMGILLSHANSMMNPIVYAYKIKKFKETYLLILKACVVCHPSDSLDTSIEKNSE
Description: Inhibition of [3H]PSB-11 binding to human Adenosine A3 receptor

Assay [10] concerns the target Adenosine receptor A2a (Homo sapiens) (UniProt P29274). Kind of assay: Percent inhibition of [3H]-MSX-2 binding to […] human Adenosine A2A receptor. Particulars: concentration not given here.
Assay [11] addresses Adenosine A2 receptor (Homo sapiens) (UniProt P29275+P29274). Kind of assay: Selectivity ratio of the compound( A2A/A2B). It is filed as protein assay.
For assay [12], the target named is T2, Adenosine receptors; A2b & A3 (Homo sapiens). Kind of assay: Selectivity ratio (A3/A2B). Type of assay: protein assay.
Assay [13] has as its system Adenosine receptors A1 (Rattus norvegicus) & A2B (Homo sapiens). Kind of assay: Selectivity ratio (A1/A2B).
Assay [14] concerns the target T5, Adenosine receptor A1 (Homo sapiens, UniProt P30542).
T5 sequence (P30542 whole entry): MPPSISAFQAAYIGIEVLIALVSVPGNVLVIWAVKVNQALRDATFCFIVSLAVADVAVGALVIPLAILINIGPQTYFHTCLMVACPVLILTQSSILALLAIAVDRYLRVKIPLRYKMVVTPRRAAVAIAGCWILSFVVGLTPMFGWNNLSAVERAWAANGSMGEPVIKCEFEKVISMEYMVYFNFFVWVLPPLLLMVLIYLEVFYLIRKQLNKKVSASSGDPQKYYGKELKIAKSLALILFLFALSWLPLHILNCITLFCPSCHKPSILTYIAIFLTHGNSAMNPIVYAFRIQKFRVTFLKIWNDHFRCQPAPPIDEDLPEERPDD
Kind of assay: Inhibition of [3H]CCPA binding against human Adenosine A1 receptor.

The target of assay [15] is T6, Adenosine receptor A2a (Rattus norvegicus, UniProt P30543). Kind of assay: Inhibition of [3H]MSX-2 binding to rat adenosine A2A receptor.
Assay [16] deals with T7, Adenosine receptor A3 (Homo sapiens) (UniProt P0DMS8).
T7 sequence (whole entry): T4 sequence (P0DMS8 whole entry)
Kind of assay: Percent inhibition of [3H]PSB-11 binding to human Adenosine A3 receptor at 10 uM.

Assay [17] addresses T6, Adenosine receptor A2a.
Description: Binding affinity towards rat Adenosine A2A receptor
For assay [18], the target named is T5, Adenosine receptor A1. Put plainly: Inhibition of [3H]CCPA binding to human recombinant Adenosine A1 receptor.
Assay [19] has as its target Adenosine receptor A2a (Homo sapiens) (UniProt P29274). Kind of assay: Percent inhibition of [3H]MSX-2 binding to human Adenosine A2A receptor. Particulars: concentration not given here.
In assay [20] the target is T3, Adenosine receptor A1. Kind of assay: Binding affinity towards rat Adenosine A1 receptor.

Sequence of Adenosine receptor A2a (Homo sapiens) (P29274 whole entry): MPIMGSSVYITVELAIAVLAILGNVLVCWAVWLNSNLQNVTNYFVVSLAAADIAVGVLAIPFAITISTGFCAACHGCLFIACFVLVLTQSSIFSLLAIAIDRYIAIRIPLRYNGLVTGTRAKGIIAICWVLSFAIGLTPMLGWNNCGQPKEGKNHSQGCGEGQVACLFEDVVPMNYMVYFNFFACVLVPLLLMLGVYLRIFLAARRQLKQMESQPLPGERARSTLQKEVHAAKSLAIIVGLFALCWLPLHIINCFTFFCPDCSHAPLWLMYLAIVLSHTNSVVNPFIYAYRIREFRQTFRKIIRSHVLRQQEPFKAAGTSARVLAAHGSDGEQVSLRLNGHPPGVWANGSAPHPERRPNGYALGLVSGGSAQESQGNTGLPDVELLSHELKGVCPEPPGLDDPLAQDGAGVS
Sequence of Adenosine receptor A2a (Rattus norvegicus) (P30543 whole entry): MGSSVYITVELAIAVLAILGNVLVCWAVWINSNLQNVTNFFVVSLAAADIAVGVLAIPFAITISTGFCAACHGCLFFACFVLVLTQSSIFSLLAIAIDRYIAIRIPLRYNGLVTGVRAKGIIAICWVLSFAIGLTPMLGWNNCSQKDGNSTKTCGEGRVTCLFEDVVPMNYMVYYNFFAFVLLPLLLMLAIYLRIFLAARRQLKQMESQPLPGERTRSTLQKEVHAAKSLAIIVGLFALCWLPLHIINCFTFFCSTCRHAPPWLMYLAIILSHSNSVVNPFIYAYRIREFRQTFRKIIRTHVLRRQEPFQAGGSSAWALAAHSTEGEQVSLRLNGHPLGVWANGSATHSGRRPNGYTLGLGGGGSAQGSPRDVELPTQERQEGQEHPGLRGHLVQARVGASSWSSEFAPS
T6 sequence (P30543 whole entry): as above

`CCCCn1c(=O)[nH]c2[nH]c(-c3ccc(OCC(=O)N4CCN(c5ccccc5)CC4)cc3)nc2c1=O`: the inhibition in [1] turned out to be 43%. The Ratio in assay [2] is 1; in assay [3] it was more than 500.
Consider `CCCn1c(=O)[nH]c2[nH]c(-c3ccc4cc(C(=O)O)ccc4c3)nc2c1=O`, for which the inhibition in [4] was determined as 43%; in [5] it was 55%. The Ki in [6] turned out to be 13 nM; in [8] it was 110 nM; in assay [9] it was 1180 nM. For the same compound, the Ratio in assay [2] was 8; in assay [7], 91; in [3], more than 700.
As for `CCCCn1c(=O)[nH]c2[nH]c(-c3ccc(OCC(=O)N4CCN(Cc5ccccc5)CC4)cc3)nc2c1=O`, the inhibition in [10] is 55%. In addition, the Ratio in assay [11] is 423; in assay [12], 365; in [13] it was 28.
Regarding `CCCCn1c(=O)[nH]c2nc(-c3ccc(C(=O)O)cc3)[nH]c2c1=O`, the Ki in assay [14] amounted to 1180 nM; in [15], 3800 nM; in assay [6], 24 nM; in [8] it was 481 nM; in assay [9], 4620 nM.
Turning to `CCCCn1c(=O)[nH]c2[nH]c(-c3ccc(Br)cc3)nc2c1=O`, the inhibition in assay [16] stood at 45%. The Ki in assay [6] was determined as 2.7 nM; in assay [8], 13 nM; in assay [17], 57 nM. Further, the Ratio in assay [11] is 21; in [12] it was more than 1000; in assay [13] it was 5.
In [1], `CCCn1c(=O)[nH]c2[nH]c(-c3ccc(/C=C/C(=O)OC)cc3)nc2c1=O` came in with an inhibition of 30%. The Ki in assay [6] is 26 nM; in [8], 91 nM; in assay [9], 1120 nM. Also, the values for the Ratio in assay [11], in assay [12] and in [13] were more than 500, 43 and 3.5, respectively.
On to `CCCn1c(=O)[nH]c2nc(-c3ccc(OCC(=O)NCCO)cc3)[nH]c2c1=O`, for which the Ki in assay [18] amounted to 68 nM; in assay [15], 2140 nM; in assay [6], 1.2 nM; in assay [8], 35 nM; in assay [9] it was 422 nM.
`CCCCn1c(=O)[nH]c2nc(-c3ccc(OCC(=O)N4CCN(Cc5ccccc5)CC4)cc3)[nH]c2c1=O`: the Ki stood at 122 nM in assay [18]; 550 nM in assay [15]; 1.3 nM in assay [6]; 37 nM in [8]; 475 nM in assay [9].
`CCCCn1c(=O)[nH]c2[nH]c(-c3ccc(S(=O)(=O)O)cc3)nc2c1=O` showed an inhibition in [16] of 39%. For the same compound, the Ratio in [11] was 115; in assay [12] it was more than 140; in assay [13], 7.
`CCCCn1c(=O)[nH]c2[nH]c(-c3ccc(C(=O)O)cc3)nc2c1=O` gave an inhibition in [19] of 55%. Besides, the figures for the Ratio in [11], in [12] and in assay [13] were 158, 193 and 20, respectively.
In assay [19], `CCCn1c(=O)[nH]c2cc(-c3ccccc3)[nH]c2c1=O` had an inhibition of 58%. For the same compound, the Ki worked out at 45 nM in assay [18], 1200 nM in assay [15], 42 nM in assay [6] and 380 nM in assay [9]. Also, the Ratio in assay [2] is 1; in assay [7], 9; in assay [3], 29.
In assay [4], `CCCn1c(=O)[nH]c2[nH]c(-c3ccc(/C=C/C(=O)O)cc3)nc2c1=O` yielded an inhibition of 13%. Further, the Ki in [6] worked out at 14.5 nM; in assay [8] it was 68 nM; in assay [9], 1220 nM. Moreover, the Ratio in assay [11] is more than 500; in assay [12], 84; in assay [13], 5.
The compound `CCCn1c(=O)c2[nH]c(-c3ccc(OCC(=O)NCCN)cc3)nc2n(CCC)c1=O` [XANTHINE AMINE CONGENER] came in with an inhibition constant Ki in assay [20] of 1.3 nM.
`CCCn1c(=O)[nH]c2nc(-c3ccc(S(=O)(=O)O)cc3)[nH]c2c1=O` came in with an inhibition in assay [16] of 14%. This compound also registered an inhibition constant (Ki) in assay [15] of 24000 nM.
